Laboratory results from US11097034B2, “Compositions and methods of modulating endochondral ossification and bone formation” (CASE WESTERN RESERVE UNIVERISTY, priority 2016, dated 2021).

Key:
[1] = tested on: unstable tibia fractures; test: Carbachol injection into tibia fracture callus, μCT; type: in vivo, mouse; settings: injected into callus during cartilaginous phase; vs DMEM controls; trend
Description: All procedures were performed on adult male wild type (C57BL/6) mice. We created unstable tibia fractures through three point bending and surgically resected nerves proximal to the fracture (either the sciatic nerve, femoral nerve, or both) and compared them to mice who received sham procedures. We injected Carbachol (Cch), a synthetic acetylcholine analogue, into the callus during the cartilaginous phase of healing and compared them to controls that were injected with Dulbecco's Modified Eagle's medium (DMEM) alone. Bone mineral density (BMD) and bone volume were quantified using micro-computed tomography (μCT) analysis. Following μCT the tibiae were processed for histology and stained using the Hall Brunt Quadruple stain (HBQ). The tissue composition was quantified using stereology on an Olympus Cast system.

[2] = tested on: bone fracture; test: Temporal delivery of NGF to bone fracture site; type: in vivo, mice; settings: NGF delivery 7-9 days post-fracture compared with 4-6 days
Text: FIGS. 24(A-B) illustrate plots showing the temporal therapeutic delivery of NGF to improve bone fracture healing in mice. (A) Timeline of experimental delivery of NGF to bone fracture site for two different post-fracture time ranges. (B) NGF expression decreases over time post-fracture.

Compound	bone mineral density (BMD), μCT [1]	activation of selected bone healing markers [2]
C[N+](C)(C)CCOC(N)=O [Cch, Carbachol]	higher BMD than controls	
NGF: nerve growth factor		more robust activation of selected bone healing markers
